Laboratory results taken from the supplement of paper PMC10307832.

Key:
Assay in all cases: relative viability (nuclei count vs DMSO), 5 days (fraction); higher = more cells survive
Bortezomib + Lapatinib = compound: CC(C)C[C@H](NC(=O)[C@H](Cc1ccccc1)NC(=O)c1cnccn1)B(O)O [Bortezomib] + CS(=O)(=O)CCNCc1ccc(-c2ccc3ncnc(Nc4ccc(OCc5cccc(F)c5)c(Cl)c4)c3c2)o1 [Lapatinib] (partner 2 µM)
In short: (§1)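 Lung cancer cell lines in 1536-well plates got either a single drug or a fixed anchor-drug dose together with five library-drug doses (not always all listed) in √10 steps, by pin tool, on the day after seeding. Nuclei were counted after 5 days, and relative viability is the treated-to-vehicle ratio of nuclei counts. Values are medians of duplicate plates.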

Bortezomib + Pemetrexed = compound: CC(C)C[C@H](NC(=O)[C@H](Cc1ccccc1)NC(=O)c1cnccn1)B(O)O [Bortezomib] + Nc1nc2[nH]cc(CCc3ccc(C(=O)N[C@@H](CCC(=O)O)C(=O)O)cc3)c2c(=O)[nH]1 [Pemetrexed] (partner 0.2 µM)
In short: as §1

[1] = compound: CC1=CC(=NN1)NC2=CC(=NC(=N2)/C=C/C3=CC=CC=C3)N4CCN(CC4)C + CC(C)C[C@H](NC(=O)[C@H](Cc1ccccc1)NC(=O)c1cnccn1)B(O)O [Bortezomib] (partner 0.002 µM)
In short: as §1

[2] = compound: CC1=CC(=NN1)NC2=CC(=NC(=N2)/C=C/C3=CC=CC=C3)N4CCN(CC4)C + NC(=O)Nc1cc(-c2cccc(F)c2)sc1C(=O)N[C@H]1CCCNC1 [AZD7762] (partner 0.2 µM)
In short: as §1

Cell Line: NCI-H650
- relative viability (Bortezomib + Lapatinib; first compound 0.000632 µM): 0.596
- relative viability (Bortezomib + Lapatinib; first compound 0.002 µM): 1.02
- relative viability (Bortezomib + Lapatinib; first compound 0.006325 µM): 0.382
- relative viability (Bortezomib + Lapatinib; first compound 0.02 µM): 0.175
- relative viability (Bortezomib + Pemetrexed; first compound 0.0002 µM): 0.914
- relative viability (Bortezomib + Pemetrexed; first compound 0.000632 µM): 0.997
- relative viability (Bortezomib + Pemetrexed; first compound 0.002 µM): 0.878
- relative viability (Bortezomib + Pemetrexed; first compound 0.006325 µM): 0.85
- relative viability (Bortezomib + Pemetrexed; first compound 0.02 µM): 0.16
- relative viability ([1]; first compound 0.08 µM): 0.839
- relative viability ([1]; first compound 0.253 µM): 1.01
- relative viability ([1]; first compound 0.8 µM): 0.673
- relative viability ([1]; first compound 2.53 µM): 0.364
- relative viability ([1]; first compound 8 µM): 0.187
- relative viability ([2]; first compound 0.08 µM): 1.26
- relative viability ([2]; first compound 0.253 µM): 1.02
- relative viability ([2]; first compound 0.8 µM): 1.29
- relative viability ([2]; first compound 2.53 µM): 0.736
- relative viability ([2]; first compound 8 µM): 0.187
